Reference: ChEMBL document CHEMBL5729489, “Naphthyridinone derivatives and their use in the treatment of arrhythmia” (2022)
pIC50: −log10 of the molar value.

Target: T1, Kir3.1/Kir3.4 (Homo sapiens, UniProt P48544+P48549)
T1 sequence (P48549 whole entry): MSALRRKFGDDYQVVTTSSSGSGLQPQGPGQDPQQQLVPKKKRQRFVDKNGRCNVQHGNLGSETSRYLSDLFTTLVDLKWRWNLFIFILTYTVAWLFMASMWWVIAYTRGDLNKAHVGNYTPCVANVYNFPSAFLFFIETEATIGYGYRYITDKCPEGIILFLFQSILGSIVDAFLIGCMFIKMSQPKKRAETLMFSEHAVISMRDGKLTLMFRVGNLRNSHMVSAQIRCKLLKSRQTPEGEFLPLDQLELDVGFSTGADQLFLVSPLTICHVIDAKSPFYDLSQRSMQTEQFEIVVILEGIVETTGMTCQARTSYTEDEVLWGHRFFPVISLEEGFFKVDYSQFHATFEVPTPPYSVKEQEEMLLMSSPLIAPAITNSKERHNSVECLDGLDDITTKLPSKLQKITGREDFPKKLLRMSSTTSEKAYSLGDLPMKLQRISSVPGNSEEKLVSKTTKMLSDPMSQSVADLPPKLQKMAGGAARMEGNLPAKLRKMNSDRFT
T1 sequence (P48544 whole entry): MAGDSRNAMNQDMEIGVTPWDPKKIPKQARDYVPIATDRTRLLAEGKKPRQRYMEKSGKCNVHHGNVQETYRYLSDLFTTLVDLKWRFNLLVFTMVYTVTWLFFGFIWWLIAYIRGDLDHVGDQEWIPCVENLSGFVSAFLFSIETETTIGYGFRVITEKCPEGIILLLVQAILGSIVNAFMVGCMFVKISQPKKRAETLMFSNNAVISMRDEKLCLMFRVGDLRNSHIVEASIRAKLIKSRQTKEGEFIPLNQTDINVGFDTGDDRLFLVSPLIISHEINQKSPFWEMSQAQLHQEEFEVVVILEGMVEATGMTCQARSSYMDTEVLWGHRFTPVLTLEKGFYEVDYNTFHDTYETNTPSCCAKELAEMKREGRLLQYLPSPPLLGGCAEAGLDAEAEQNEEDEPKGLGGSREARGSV
Assay: IonWorks Quattro system: Quattro is controlled using IonWorks v2 software to perform the following steps:a. Add 3.5 ul cells plus 3.5 ul external buffer to wells of Quattro Patch Plateb. Circulate amphotericin B and internal buffer onto cellsc. Apply the following voltage protocol: Pulse 1: 15 mV for 300 milliseconds (ms), followed by Pulse 2: −120 mV for 400 ms, then Pulse 3: −15 mV for 400 ms, and finally Pulse 4: −120 mV to 40 mV over 500 ms (this is a voltage ramp).d. Measure magnitude of inward potassium current at time point between 1200-1220 ms from start of Pulse 1 (i.e. during the voltage ramp phase).e. Add 3.5 ul of diluted compounds (or DMSO) to wells and repeat steps c-d (final compound concentrations are 50 uM to 0.1 uM, for potent compounds 0.5 uM to 0.01 uM and each concentration is tested in quadruplicate—i.e. in 4 separate wells).f. The difference between current magnitude pre vs. post-compound gives a measure of GIRK1/4 inhibition.7. Data analysis:IC50 values are calculated by plotting the percentage of current inhibition (normalized to the DMSO-only control) as a function of compound concentration using standard data analysis software.

Row | pIC50 | Compound
1 | 6.45 | O=c1cc(CO)n(-c2c(Cl)cccc2Cl)c2c(Cl)cnc(OCC(CO)CO)c12
2 | 7.00 | CS(=O)(=O)NCCOc1ncc(Cl)c2c1c(=O)cc(CO)n2-c1c(Cl)cccc1Cl
